Data on seven compounds can be found in US10638757B2, “Formulation systems for antimicrobial glycolipids” (IMD Natural Solutions GmbH, priority 2016, dated 2020).

Entries after “also recorded” stand apart in the source; their conditions may differ.

Data set [1] is described as follows: Influence of the additives on the MIC of a mixture of antimicrobial glycolipids (qualitative). The data set is classed as cell-based. To be noted: additive 1 mg/ml.
Excerpt: In addition, the influence of the additives on the MIC of a mixture of antimicrobial glycolipids is described qualitatively.
A short description of data set [2]: Comparison of alpha-cyclodextrin with Polysorbate 60: practicability in application in beverages and reliability in use. The note with it: compared with polysorbates. From the text:
The preferred formulation stabilizers polysorbates and cyclodextrins have been further investigated towards their practicability in application in beverages as well as their reliability in use.

The nature of data set [3]: Visual control of compatibility (turbidity, particles, precipitate) of beverages containing mixture of antimicrobial glycolipids with or without formulation stabilizer. On the procedure:
All experiments done and reported in duplicate.
Portions of about 50 mL each for the two beverages, “Gerolstetner Orangenlimonade” (turbid orange lemonade, de-gassed; cloudy beverage) and “REWE Apfelsaft” (clear apple juice, sterile filtered; clear beverage), were mixed with aliquots of a mixture of antimicrobial glycolipids and alpha-cyclodextrin as to establish the depicted nine combinations of concentrations (4-2 to 4-4 and 4-6 to 4-11, respectively); two control solutions with neither adding a mixture of antimicrobial glycolipids nor alpha-cyclodextrin were run in parallel (4-1 and 4-5, respectively).
However, for the concentration of 10 μg/ml of mixture of antimicrobial glycolipids three combination with alpha-cyclodextrin, 25 (6-1, 6-2, 6-9, 6-10, 6-17, 6-18), 75 (6-3, 6-4, 6-11, 6-12, 6-19, 6-20) and 100 μg/ml (6-5, 6-6, 6-13, 6-14, 6-21, 6-22) and for the concentration of 25 μg/ml of mixture of antimicrobial glycolipids only 100 μg/ml alpha-cyclodextrin (6-7, 6-8, 6-15, 6-16, 6-23, 6-24) was used all with two test points, respectively.
2×50 mL portion of the four solutions in the Erlenmeyer flasks were poured into clear and sterile polystyrol conical tubes and sealed for investigation of stability and compatibility of such beverages at three different temperatures (6/20/40° C.) each, resulting in four tubes per temperature and beverage. Such 24 tubes were stored for seven days and observed at day 0, 3 and 7 by measurement of turbidity as well as by optical inspection. A control solution without adding any components was run in parallel.
Portions of about 50 mL each for the three beverages, “Gerolsteiner Orangenlimonade” (orange lemonade, de-gassed, cloudy beverage), “Kastell Zitronensprudel” (citrus lemonade, sterile filtered, clear beverage), and “REWE Apfelsaft” (clear apple juice, sterile filtered, clear beverage), were mixed with aliquots of a mixture of antimicrobial glycolipids as to establish the nine test solutions; three control solutions without adding a mixture of antimicrobial glycolipids were ran in parallel: […]

The nature of data set [4]: Screening of additives as formulation stabilizers in combination with a mixture of antimicrobial glycolipids in water based formulations (turbidity, qualitative overview). As to the method: As to identify formulation stabilizer a screening was conducted in which additives typically used in food, cosmetic or medical applications were combined with a mixture of antimicrobial glycolipids in a water based formulation. A rather high concentration of 1000 mg/l for the formulation enhancing agents was used as to not miss potential effects whereas the mixture of antimicrobial glycolipids was applied in typical use concentrations, i.e. 5, 10 and 25 μg/ml.
Portions of about 50 mL each for two beverages. “Gerolsteiner Orangenlimonade” (turbid orange lemonade, de-gassed; cloudy beverage) and “REWE Apfelsaft” (clear apple juice, sterile filtered; clear beverage) as well as for 10 mM citrate buffer is water (pH 3.0), were mixed each with aliquots of a mixture of antimicrobial glycolipids and the respective additives as to establish for each individually screened additive three combinations of concentrations (1000 μg/ml (with few exceptions as listed below) additive with 5, 10 and 25 μg/ml mixture of antimicrobial glycolipids, respectively); three controls with neither adding a mixture of antimicrobial glycolipids nor additive were run in parallel.
The necessary aliquots of a mixture of antimicrobial glycolipids were transferred from an aqueous stock solution containing 1 mg/ml mixture of antimicrobial glycolipids into the nine test solutions prepared for each additive.
The necessary aliquots of additives were transferred directly into the 50 mL portions.
For measurement of the turbidity the turbidity infrared device AL250T-IR from […]® was used. It was measured at three time points: day 0, 3, 7. All test samples were stored and handled at room temperature.

Where [5] appears, read: additive 1 mg/ml, independent of glycolipid mixture.

`O=C(O)CN(CCN(CC(=O)O)CC(=O)O)CC(=O)O` [EDTA]: the “Effect on MIC” value in data set [1] is on record as “Impr”. Regarding `OC[C@H]1O[C@@H]2O[C@H]3[C@H](O)[C@@H](O)[C@@H](O[C@H]4[C@H](O)[C@@H](O)[C@@H](O[C@H]5[C@H](O)[C@@H](O)[C@@H](O[C@H]6[C@H](O)[C@@H](O)[C@@H](O[C@H]7[C@H](O)[C@@H](O)[C@@H](O[C@H]1[C@H](O)[C@H]2O)O[C@@H]7CO)O[C@@H]6CO)O[C@@H]5CO)O[C@@H]4CO)O[C@@H]3CO` [alpha-cyclodextrin], the “overall rating as broadly applicable and reliable formulation stabilizer” value in data set [2] was “superior”. Also, the “alpha-cyclodextrin concentration avoiding lack of compatibility” value in data set [3] (10 μg/ml mixture of antimicrobial glycolipids in apple juice at 4° C.) stood at 75 µg/mL. Also, the “alpha-cyclodextrin concentration needed to avoid lack of compatibility” value in data set [3] (10 μg/ml mixture of antimicrobial glycolipids in apple juice at 40° C.) was 100 µg/mL. Moreover, the “duration of improvement of compatibility” value in data set [3] (alpha-cyclodextrin with 10 μg/ml mixture of antimicrobial glycolipids, apple juice) is on record as above 28 days.

As for `OC[C@H]1O[C@@H]2O[C@H]3[C@H](O)[C@@H](O)[C@@H](O[C@H]4[C@H](O)[C@@H](O)[C@@H](O[C@H]5[C@H](O)[C@@H](O)[C@@H](O[C@H]6[C@H](O)[C@@H](O)[C@@H](O[C@H]7[C@H](O)[C@@H](O)[C@@H](O[C@H]8[C@H](O)[C@@H](O)[C@@H](O[C@H]9[C@H](O)[C@@H](O)[C@@H](O[C@H]1[C@H](O)[C@H]2O)O[C@@H]9CO)O[C@@H]8CO)O[C@@H]7CO)O[C@@H]6CO)O[C@@H]5CO)O[C@@H]4CO)O[C@@H]3CO` [gamma cyclodextrin], the “beneficial effects as formulation stabilizer for antimicrobial glycolipids” value in data set [3] is “less pronounced beneficial effects”. For Sorbitan monostearate, the “Effect of additive itself on water based product” value (“Effect of additive itself” below) in data set [4] (additive 0.1 mg/ml) is on record as “Weakly soluble”.

“polyoxyethylene-(20)-sorbitane monolaurate [Polysorbate 20]”: the “Effect of additive itself” value in data set [4] (setting [5]) is recorded as “Not compatible with apple juice”. As for “polyoxyethylene-(20)-sorbitane monooleate [Polysorbate 80]”, the “Effect of additive itself” value in data set [4] (setting [5]) is on record as “Increase of turbidity; also recorded: Not compatible with apple juice”. As to “polyoxyethylene-(20)-sorbitane monostearate [Polysorbate 60]”, the “Effect of additive itself” value in data set [4] (setting [5]) is recorded as “Not compatible with apple juice”.
